Measurements reported in patent US20080275058A1, “N-Substituted-1H-Quinoline-2,4-Diones, Preparation Method Thereof, And Pharmaceutical Composition Containing The Same” (KOREA RESEARCH INSTITUTE OF CHEMICAL TECHNOLOGY, priority 2005, published 2008).
Where two headings read alike, the source gives them in different places.

Key:
5-HT2a = molecular target: T1, 5-HT2a (Homo sapiens, UniProt P28223); test: Radioligand binding, 5-HT2a ([3H]Ketanserin); settings: Table 4; [3H]Ketanserin 1 nM; read-out: Binding affinity, IC50 (nM) 5-HT2a
T1 construct: purchased Euroscreen/BioSignal Packard Inc
T1 sequence (P28223 whole entry): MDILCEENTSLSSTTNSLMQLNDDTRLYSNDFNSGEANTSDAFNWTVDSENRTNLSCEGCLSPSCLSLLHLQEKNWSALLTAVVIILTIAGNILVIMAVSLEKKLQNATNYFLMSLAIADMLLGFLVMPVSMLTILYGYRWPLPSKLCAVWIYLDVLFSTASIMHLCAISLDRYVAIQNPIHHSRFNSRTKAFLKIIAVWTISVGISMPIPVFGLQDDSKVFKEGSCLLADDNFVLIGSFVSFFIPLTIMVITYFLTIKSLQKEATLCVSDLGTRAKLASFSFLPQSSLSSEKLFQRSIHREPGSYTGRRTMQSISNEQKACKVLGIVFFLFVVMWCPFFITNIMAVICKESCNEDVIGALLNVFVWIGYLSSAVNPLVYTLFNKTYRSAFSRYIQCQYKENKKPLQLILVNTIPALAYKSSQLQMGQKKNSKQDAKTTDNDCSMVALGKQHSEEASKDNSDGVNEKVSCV

hD2L = molecular target: T2, hD2L (Homo sapiens, UniProt P14416); test: Radioligand binding, dopamine D2 ([3H]spiperone); settings: Table 4; [3H]spiperone 1 nM; read-out: Binding affinity, IC50 (nM) D2
T2 construct: purchased BioSignal Packard Inc., Montreal, Canada
T2 sequence (P14416 whole entry): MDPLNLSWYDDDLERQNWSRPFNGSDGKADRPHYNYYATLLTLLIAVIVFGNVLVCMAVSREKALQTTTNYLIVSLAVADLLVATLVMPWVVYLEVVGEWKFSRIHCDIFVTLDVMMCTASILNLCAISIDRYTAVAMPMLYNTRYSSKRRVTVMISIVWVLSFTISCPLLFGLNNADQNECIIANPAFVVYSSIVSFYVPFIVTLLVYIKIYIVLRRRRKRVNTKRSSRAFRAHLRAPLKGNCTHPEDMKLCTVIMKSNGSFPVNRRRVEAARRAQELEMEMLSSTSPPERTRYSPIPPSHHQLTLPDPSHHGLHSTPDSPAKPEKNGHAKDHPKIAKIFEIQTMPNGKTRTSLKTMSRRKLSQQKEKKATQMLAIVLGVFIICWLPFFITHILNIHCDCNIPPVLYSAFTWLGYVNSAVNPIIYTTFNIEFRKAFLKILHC
Experimental: (§1) 2-2: Binding assays of Dopamine Receptor Family
(§2) The radioligands used were [^3H] spiperone (for hD2L and hD3 receptors, 1 nM) and [^3H] YM-09151-2 (for hD4.2 receptor, 0.06 nM). Radioligand bindings were performed by the protocols provided by the supplier of receptor membranes (BioSignal Packard Inc., Montreal, Canada). Briefly, the buffer used in D2 or D3 receptor binding assay was 50 mM Tris-HCl (pH 7.4), 10 mM MgCl2, 1 mM EDTA, or 50 mM Tris-HCl (pH 7.4), 5 mM MgCl2, 5 mM EDTA, 5 mM KCl, 1.5 mM CaCl2, 120 mM NaCl, respectively. In [^3H] YM-09151-2 receptor binding assays, the buffer containing 50 mM Tris-HCl (pH 7.4), 5 mM MgCl2, 5 mM EDTA, 5 mM KCl and 1.5 mM CaCl2 was used. […] Competition binding studies were carried out with 7-8 concentrations of the test compound run in duplicate tubes, and isotherms from three assays were calculated by computerized nonlinear regression analysis (GraphPad Prism Program, San Diego, […]) to yield median inhibitory concentration (IC50) values.

hD4.2 receptor = molecular target: T3, hD4.2 receptor (Homo sapiens, UniProt P21917, DEL265-296); test: Radioligand binding, dopamine D4 ([3H]YM-09151-2); settings: Table 4; [3H]YM-09151-2 0.06 nM; read-out: Binding affinity, IC50 (nM) D4
T3 construct: purchased BioSignal Packard Inc., Montreal, Canada
T3 sequence (P21917 with tags, fused parts or gaps DEL265-296): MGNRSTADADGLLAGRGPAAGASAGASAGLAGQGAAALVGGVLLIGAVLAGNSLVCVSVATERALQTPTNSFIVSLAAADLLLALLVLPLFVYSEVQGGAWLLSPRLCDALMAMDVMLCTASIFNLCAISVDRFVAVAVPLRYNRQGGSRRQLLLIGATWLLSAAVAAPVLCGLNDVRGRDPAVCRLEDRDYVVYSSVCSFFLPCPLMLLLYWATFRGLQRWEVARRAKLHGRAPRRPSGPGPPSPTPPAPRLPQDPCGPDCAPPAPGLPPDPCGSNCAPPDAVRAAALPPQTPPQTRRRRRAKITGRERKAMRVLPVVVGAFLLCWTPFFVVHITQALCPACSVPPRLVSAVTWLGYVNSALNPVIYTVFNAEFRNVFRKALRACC
Experimental: as §1, §2

5-HT7 = molecular target: T4, 5-HT7 (Homo sapiens, UniProt P34969); test: Radioligand binding, 5-HT7 ([3H]LSD); settings: Table 4; [3H]LSD 3 nM; read-out: Binding affinity, IC50 (nM) 5-HT7
T4 construct: purchased Euroscreen/BioSignal Packard Inc
T4 sequence (P34969 whole entry): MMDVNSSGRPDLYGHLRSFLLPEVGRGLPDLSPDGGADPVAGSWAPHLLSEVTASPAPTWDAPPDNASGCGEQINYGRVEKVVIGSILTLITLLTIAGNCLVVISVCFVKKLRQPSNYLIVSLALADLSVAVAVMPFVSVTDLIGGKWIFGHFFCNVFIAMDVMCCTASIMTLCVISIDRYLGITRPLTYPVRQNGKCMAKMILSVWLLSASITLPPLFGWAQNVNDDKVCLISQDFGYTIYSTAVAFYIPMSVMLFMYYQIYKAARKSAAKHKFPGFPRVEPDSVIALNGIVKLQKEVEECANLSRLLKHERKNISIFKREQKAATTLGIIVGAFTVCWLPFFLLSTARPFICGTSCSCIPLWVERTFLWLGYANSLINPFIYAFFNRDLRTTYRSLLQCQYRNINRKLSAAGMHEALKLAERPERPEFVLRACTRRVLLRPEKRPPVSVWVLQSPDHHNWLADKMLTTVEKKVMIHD

5-HT2c = molecular target: T5, 5-HT2c (Homo sapiens, UniProt P28335); test: Radioligand binding, 5-HT2c ([3H]Mesulergine); settings: Table 4; [3H]Mesulergine 1 nM; read-out: Binding affinity, IC50 (nM) 5-HT2c
T5 construct: purchased Euroscreen/BioSignal Packard Inc
T5 sequence (P28335 33-458): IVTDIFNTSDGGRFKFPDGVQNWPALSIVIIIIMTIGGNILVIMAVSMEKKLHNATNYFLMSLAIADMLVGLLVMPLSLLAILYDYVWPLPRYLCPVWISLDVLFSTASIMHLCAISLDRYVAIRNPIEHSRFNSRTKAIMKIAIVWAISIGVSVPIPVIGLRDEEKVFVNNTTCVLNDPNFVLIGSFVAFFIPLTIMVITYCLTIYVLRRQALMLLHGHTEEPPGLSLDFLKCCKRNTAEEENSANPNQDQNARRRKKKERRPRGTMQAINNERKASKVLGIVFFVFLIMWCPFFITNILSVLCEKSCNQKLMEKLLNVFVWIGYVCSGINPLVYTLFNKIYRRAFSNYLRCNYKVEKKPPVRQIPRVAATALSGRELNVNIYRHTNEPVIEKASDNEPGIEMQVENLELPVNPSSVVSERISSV

hD3 = molecular target: T6, hD3 (Homo sapiens, UniProt P35462); test: Radioligand binding, dopamine D3 ([3H]spiperone); settings: Table 4; [3H]spiperone 1 nM; read-out: Binding affinity, IC50 (nM) D3
T6 construct: purchased BioSignal Packard Inc., Montreal, Canada
T6 sequence (P35462 whole entry): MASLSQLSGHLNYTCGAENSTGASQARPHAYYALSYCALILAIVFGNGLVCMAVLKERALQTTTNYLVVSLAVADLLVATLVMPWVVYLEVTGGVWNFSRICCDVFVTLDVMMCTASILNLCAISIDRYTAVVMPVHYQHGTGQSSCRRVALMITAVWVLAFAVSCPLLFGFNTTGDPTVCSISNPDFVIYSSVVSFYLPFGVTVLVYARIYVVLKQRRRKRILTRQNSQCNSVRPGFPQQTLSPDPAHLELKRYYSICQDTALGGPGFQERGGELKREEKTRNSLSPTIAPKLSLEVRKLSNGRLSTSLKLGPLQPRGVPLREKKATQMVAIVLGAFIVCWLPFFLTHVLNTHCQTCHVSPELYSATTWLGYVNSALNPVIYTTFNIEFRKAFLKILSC
Experimental: as §1, §2

D1 = D1 (Homo sapiens, UniProt P21728); test: Radioligand binding, dopamine D1; settings: Table 4; read-out: Binding affinity, IC50 (nM) D1
Sequence of D1 (P21728 whole entry): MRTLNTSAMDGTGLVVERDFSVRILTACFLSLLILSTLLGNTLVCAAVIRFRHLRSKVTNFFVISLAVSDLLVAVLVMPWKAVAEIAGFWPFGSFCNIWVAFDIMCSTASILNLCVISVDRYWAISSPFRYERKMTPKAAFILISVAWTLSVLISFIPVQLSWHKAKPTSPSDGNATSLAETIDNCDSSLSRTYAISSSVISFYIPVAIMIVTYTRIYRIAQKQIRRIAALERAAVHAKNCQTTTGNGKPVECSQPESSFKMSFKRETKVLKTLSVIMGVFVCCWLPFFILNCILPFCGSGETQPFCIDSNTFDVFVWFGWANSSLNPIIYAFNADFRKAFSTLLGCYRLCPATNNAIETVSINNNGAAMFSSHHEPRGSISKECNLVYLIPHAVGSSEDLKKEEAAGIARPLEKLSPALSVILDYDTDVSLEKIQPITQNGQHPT

[1] = molecular target: T7, Human serotonin 5-HT6 receptor (Homo sapiens, UniProt P50406); test: [3H]LSD binding assay on cloned 5-HT6 receptor membranes; settings: for binding affinity at 5-HT6 receptor labeled by [3H]LSD, in words: comment on Table 2
T7 construct: made in house; host or cells: insect Sf21 cells (baculovirus vector BacPAK8)
T7 sequence (P50406 whole entry): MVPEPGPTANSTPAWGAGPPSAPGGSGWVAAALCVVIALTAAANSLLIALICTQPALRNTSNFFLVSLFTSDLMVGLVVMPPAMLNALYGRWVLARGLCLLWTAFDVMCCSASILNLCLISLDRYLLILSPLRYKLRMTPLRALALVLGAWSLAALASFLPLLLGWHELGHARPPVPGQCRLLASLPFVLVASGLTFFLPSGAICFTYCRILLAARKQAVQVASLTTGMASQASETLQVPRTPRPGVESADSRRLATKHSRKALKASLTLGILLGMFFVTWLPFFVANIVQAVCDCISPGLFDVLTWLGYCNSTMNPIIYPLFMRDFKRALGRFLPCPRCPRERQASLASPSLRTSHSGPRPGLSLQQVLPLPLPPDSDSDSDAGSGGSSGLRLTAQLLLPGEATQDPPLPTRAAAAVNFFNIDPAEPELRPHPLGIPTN

5-HT1a = molecular target: T8, 5-HT1a (Homo sapiens, UniProt P08908); test: Radioligand binding, 5-HT1a ([3H]8-OH-DPAT); settings: Table 4; [3H]8-OH-DPAT 0.5 nM; read-out: Binding affinity, IC50 (nM) 5-HT1a
T8 construct: purchased Euroscreen/BioSignal Packard Inc
T8 sequence (P08908 1-422): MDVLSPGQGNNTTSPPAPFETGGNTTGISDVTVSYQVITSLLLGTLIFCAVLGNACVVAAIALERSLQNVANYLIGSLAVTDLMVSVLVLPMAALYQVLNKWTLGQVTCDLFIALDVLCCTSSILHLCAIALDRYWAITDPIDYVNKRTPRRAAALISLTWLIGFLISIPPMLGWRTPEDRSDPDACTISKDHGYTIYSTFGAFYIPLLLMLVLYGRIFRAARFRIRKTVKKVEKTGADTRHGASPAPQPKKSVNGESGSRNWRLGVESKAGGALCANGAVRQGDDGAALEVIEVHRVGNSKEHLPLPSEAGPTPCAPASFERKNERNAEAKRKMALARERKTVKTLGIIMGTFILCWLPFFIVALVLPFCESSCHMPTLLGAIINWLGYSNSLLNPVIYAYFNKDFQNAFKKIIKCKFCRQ
Experimental: Radioligand bindings were performed according to the test method provided by the supplier of receptor membrane (Euroscreen/BioSignal Packard Inc.). The detailed assay conditions and the results were shown in the following Table 3 and Table 4, respectively.

[2] = Table 2, 1.87 nM [3H]LSD, 37 C, 60 min, read-out: IC50 (nM), binding affinity to the 5-HT6 receptor
[3] = Table 4, read-out: Binding affinity, IC50 (nM) 5-HT6

Row | Structure (SMILES) | IC50 (5-HT2a) [nM] | melting point [°C] | IC50 (hD2L) [nM] | IC50 (hD4.2 receptor) [nM] | IC50 (5-HT7) [nM] | IC50 (5-HT2c) [nM] | IC50 (hD3) [nM] | IC50 (D1) [nM] | IC50 [1, 2] [nM] | IC50 [1, 3] [nM] | IC50 (5-HT1a) [nM] | binding affinity at 5-HT6 receptor labeled by [3H]LSD, in words [1]
1 | CC1(c2ccc([N+](=O)[O-])cc2)C(=O)c2c(N3CCNCC3)cc(Cl)cc2N(Cc2ccccc2)C1=O (stereo not shown) [Example 15, 1-Benzyl-7-chloro-3-methyl-3-(4-nitro-phenyl)-5-piperazin-1-yl-1H-quinoline-2,4-dione] | 8120 | 145 to 146 | 6660 | 9460 | 9510 | 9950 | 9740 | 5810 | 12.1 | 15.2 | 6350 | –
2 | CC1(c2ccc(Cl)cc2)C(=O)c2c(N3CCNCC3)cc(Cl)cc2N(Cc2ccccc2)C1=O (stereo not shown) [Example 19, 1-Benzyl-7-chloro-3-(4-chloro-phenyl)-3-methyl-5-piperazin-1-yl-1H-quinoline-2,4-dione] | 9100 | 135 to 136 | 8450 | 8090 | 7570 | 6910 | 9140 | 7040 | 2.3 | 15.3 | 6550 | –
3 | CC1(c2ccc(Br)cc2)C(=O)c2c(N3CCNCC3)cc(Cl)cc2N(Cc2ccccc2)C1=O (stereo not shown) [Example 20, 1-Benzyl-3-(4-bromo-phenyl)-7-chloro-3-methyl-5-piperazin-1-yl-1H-quinoline-2,4-dione] | 5700 | 116 to 117 | 8250 | 8990 | 6840 | > 10000 | 9380 | 8540 | 1.9 | 18.2 | 6360 | significant affinities
4 | COc1ccc(C2(C)C(=O)c3c(N4CCNCC4)cc(Cl)cc3N(Cc3cccc([N+](=O)[O-])c3)C2=O)cc1 (stereo not shown) [Example 23, 7-Chloro-3-(4-methoxy-phenyl)-3-methyl-1-(3-nitro-benzyl)-5-piperazin-1-yl-1H quinoline-2,4-dione] | 6480 | 153 to 154 | 6930 | 9090 | 8450 | 8400 | 9650 | 7640 | 2.7 | 16.7 | 9010 | –
5 | COc1ccc(C2(C)C(=O)c3c(N4CCNCC4)cc(Cl)cc3N(Cc3cccc(N)c3)C2=O)cc1 (stereo not shown) [Example 25, 1-(3-Amino-benzyl)-7-chloro-3-(4-methoxy-phenyl)-3-methyl-5-piperazin-1yl-1H-quinoline-2,4-dione] | 6610 | 183 to 184 | 7650 | 9750 | 8050 | 7600 | 9660 | 6520 | 6.2 | 15.9 | 5890 | –
6 | COc1ccc(C2(C)C(=O)c3c(N4CCNCC4)cc(Cl)cc3N(Cc3ccccc3OC)C2=O)cc1 (stereo not shown) [Example 29, 7-Chloro-1-(2-methoxy-benzyl)-3-(4-methoxy-phenyl)-3-methyl-5-piperazin-1-yl-1H-quinoline-2,4-dione] | 9150 | 153 to 155 | 9170 | 9000 | 7500 | 8050 | 9410 | 7810 | 34.2 | 15 | 7580 | –
7 | COc1ccc(CN2C(=O)C(C)(c3ccc(OC)cc3)C(=O)c3c(N4CCNCC4)cc(Cl)cc32)cc1 (stereo not shown) [Example 31, 7-Chloro-1-(4-methoxy-benzyl)-3-(4-methoxy-phenyl)-3-methyl-5-piperazin-1-yl-1H-quinoline-2,4-dione] | 8340 | 182 to 183 | 6430 | 8710 | 8440 | 7950 | 8950 | 7550 | 26.5 | 21.3 | 6950 | –
8 | CC1(c2ccc(O)cc2)C(=O)c2c(N3CCNCC3)cc(Cl)cc2N(Cc2ccc(O)cc2)C1=O (stereo not shown) [Example 32, 7-Chloro-1-(4-hydroxy-benzyl)-3-(4-hydroxy-phenyl)-3-methyl-5-piperazin-1-yl-1H-quinoline-2,4-dione] | 7450 | 241 to 242 | 6960 | 9450 | 8310 | 7890 | 9110 | 9010 | 1.7 | 15.2 | 6580 | significant affinities
9 | COc1ccc(C2(C)C(=O)c3c(N4CCNCC4)cc(Cl)cc3N(Cc3ccccc3Br)C2=O)cc1 (stereo not shown) [Example 35, 1-(2-Bromo-benzyl)-7-chloro-3-(4-methoxy-phenyl)-3-methyl-5-piperazin-1-yl-1H-quinoline-2,4-dione] | 7640 | 150 to 151 | 7150 | 8880 | 7820 | 7720 | 9450 | 9750 | 9.2 | 16.4 | 9510 | –
10 | CC1(c2ccc(O)cc2)C(=O)c2c(N3CCNCC3)cc(Cl)cc2N(Cc2ccccc2Br)C1=O (stereo not shown) [Example 36, 1-(2-Bromo-benzyl)-7-chloro-3-(4-hydroxy-phenyl)-3-methyl-5-piperazin-1-yl-1H-quinoline-2,4-dione] | 6210 | 264 to 265 | 7990 | 9000 | > 10000 | 7160 | 9610 | 6030 | 29 | 15.1 | 9320 | –
